From patent US20260250272A1, “N-SUBSTITUTED QUINOLINONE COMPOUND, PREPARATION METHOD THEREFOR AND USE THEREOF” (VIGONVITA LIFE SCIENCES CO., LTD., priority 2022, published 2026) come the findings set out here.

Converted amounts (≈) assume the structure as drawn.

The data set is described as follows: Oil solubility test in benzyl benzoate (HPLC). It counts as physicochemical. The following applies: organic solvent or mixture, thermodynamic from solid, 25° C., shaken 2 h. The method, then:
The solubility test was performed by quantitative analysis using an external standard method of high-performance liquid chromatography.
Reference sample solution: 10 mg of reference sample was weighed, placed in a 20 mL volumetric flask, diluted to the scale with 80% acetonitrile, and shaken uniformly.
Test sample solution: an appropriate amount of sample was dissolved in benzyl benzoate to obtain a saturated solution. The mixture was placed in a shaker and shaken at 25° C. and 800 rpm for 2 h. The sample solution was filtered, and 100 μL of filtrate was added to a 10 mL volumetric flask, diluted to the scale with 80% acetonitrile, and shaken uniformly.
As for `CC(C)OC(=O)N1C(=O)CCc2ccc(CCN3CCN(c4cc(F)cc5sccc45)CC3)cc21` [Compound 4], the solubility (in general, how much of the substance goes into solution per volume) at 2 h amounted to 25.8 mg/mL (≈ 52 mM). Consider `CCCCCCCCCCCCCCCC(=O)OCn1c(=O)ccc2ccc(CCN3CCN(c4cc(F)cc5sccc45)CC3)cc21` [Compound 9, (7-(2-(4-(6-Fluorobenzo[b]thiophen-4-yl)piperazin-1-yl)ethyl)-2-oxoquinolin-1(2H)-yl)methyl palmitate], for which the solubility at 2 h was greater than 200 mg/mL. Take `CCCCCCCCCC(=O)OCn1c(=O)ccc2ccc(CCN3CCN(c4cc(F)cc5sccc45)CC3)cc21` [Compound 10, (7-(2-(4-(6-Fluorobenzo[b]thiophen-4-yl)piperazin-1-yl)ethyl)-2-oxoquinolin-1(2H)-yl)methyl decanoate]: the solubility at 2 h is greater than 200 mg/mL. Regarding `CCCCCCCCCCCC(=O)OC(C)N1C(=O)CCc2ccc(CCN3CCN(c4cc(F)cc5sccc45)CC3)cc21` (stereo not shown) [Compound 13, 1-(7-(2-(4-(6-Fluorobenzo[b]thiophen-4-yl)piperazin-1-yl)ethyl)-2-oxo-3,4-dihydroquinolin-1(2H)-yl)ethyl dodecanoate], the solubility at 2 h is greater than 200 mg/mL.

On to `CCCCCCCCCCCOC(=O)OCN1C(=O)CCc2ccc(CCN3CCN(c4cc(F)cc5sccc45)CC3)cc21` [Compound 14, (7-(2-(4-(6-Fluorobenzo[b]thiophen-4-yl)piperazin-1-yl)ethyl)-2-oxo-3,4-dihydroquinolin-1(2H)-yl) methyl undecyl carbonate], for which the solubility at 2 h is greater than 200 mg/mL. Turning to `CCCCCCCCCCCCCCCC(=O)OC(C)N1C(=O)CCc2ccc(CCN3CCN(c4cc(F)cc5sccc45)CC3)cc21` (stereo not shown) [Compound 15, 1-(7-(2-(4-(6-Fluorobenzo[b]thiophen-4-yl)piperazin-1-yl)ethyl)-2-oxo-3,4-dihydroquinolin-1(2H)-yl) ethyl palmitate], the solubility at 2 h was greater than 200 mg/mL.

Turning to `CCCCCCCOC(=O)OCN1C(=O)CCc2ccc(CCN3CCN(c4cc(F)cc5sccc45)CC3)cc21` [Compound 25, (7-(2-(4-(6-Fluorobenzo[b]thiophen-4-yl)piperazin-1-yl)ethyl)-2-oxo-3,4-dihydroquinolin-1(2H)-yl) methyl heptyl carbonate], the solubility at 2 h was greater than 200 mg/mL. For `CCCCCCCCOC(=O)OCN1C(=O)CCc2ccc(CCN3CCN(c4cc(F)cc5sccc45)CC3)cc21` [Compound 26, (7-(2-(4-(6-Fluorobenzo[b]thiophen-4-yl)piperazin-1-yl)ethyl)-2-oxo-3,4-dihydroquinolin-1(2H)-yl) methyl octyl carbonate], the solubility at 2 h is greater than 200 mg/mL. On to `CCCCCCCCCOC(=O)OCN1C(=O)CCc2ccc(CCN3CCN(c4cc(F)cc5sccc45)CC3)cc21` [Compound 27, (7-(2-(4-(6-Fluorobenzo[b]thiophen-4-yl)piperazin-1-yl)ethyl)-2-oxo-3,4-dihydroquinolin-1(2H)-yl) methyl nonyl carbonate], for which the solubility at 2 h was greater than 200 mg/mL.

Turning to `CCCCCCCCCCOC(=O)OCN1C(=O)CCc2ccc(CCN3CCN(c4cc(F)cc5sccc45)CC3)cc21` [Compound 28, Decyl ((7-(2-(4-(6-fluorobenzo[b]thiophen-4-yl)piperazin-1-yl)ethyl)-2-oxo-3,4-dihydroquinolin-1(2H)-yl)methyl) carbonate], the solubility at 2 h is greater than 200 mg/mL. As to `CCCCCCCCCCCCOC(=O)OCN1C(=O)CCc2ccc(CCN3CCN(c4cc(F)cc5sccc45)CC3)cc21` [Compound 29, Dodecyl ((7-(2-(4-(6-fluorobenzo[b]thiophen-4-yl)piperazin-1-yl)ethyl)-2-oxo-3,4-dihydroquinolin-1(2H)-yl)methyl) carbonate], the solubility at 2 h was greater than 200 mg/mL.

For the molecule `CCCCCCCCCCCCCCOC(=O)OCN1C(=O)CCc2ccc(CCN3CCN(c4cc(F)cc5sccc45)CC3)cc21` [Compound 30, (7-(2-(4-(6-Fluorobenzo[b]thiophen-4-yl)piperazin-1-yl)ethyl)-2-oxo-3,4-dihydroquinolin-1(2H)-yl) methyl tetradecyl carbonate], the solubility at 2 h was greater than 200 mg/mL. Regarding `CCCCCCCCCCCCCCCCOC(=O)OCN1C(=O)CCc2ccc(CCN3CCN(c4cc(F)cc5sccc45)CC3)cc21` [Compound 31, (7-(2-(4-(6-Fluorobenzo[b]thiophen-4-yl)piperazin-1-yl)ethyl)-2-oxo-3,4-dihydroquinolin-1(2H)-yl)methyl hexadecyl carbonate], the solubility at 2 h is greater than 200 mg/mL. As for `CCCCCCCCCCCC(=O)OCn1c(=O)cc(F)c2ccc(CCN3CCN(c4cc(F)cc5sccc45)CC3)cc21` [Compound 38, (4-Fluoro-7-(2-(4-(6-fluorobenzo[b]thiophen-4-yl)piperazin-1-yl)ethyl)-2-oxoquinolin-1(2H)-yl)methyl dodecanoate], the solubility at 2 h is greater than 200 mg/mL. In the case of `CCCCCCCCCCCC(=O)OCN1C(=O)CC(C)(C)c2ccc(CCN3CCN(c4cc(F)cc5sccc45)CC3)cc21` [Compound 43, (7-(2-(4-(6-Fluorobenzo[b]thiophen-4-yl)piperazin-1-yl)ethyl)-4,4-dimethyl-2-oxo-3,4-dihydroquinolin-1(2H)-yl)methyl dodecanoate], the solubility at 2 h was greater than 200 mg/mL. As to `[2H]c1cc(=O)n(COC(=O)CCCCCCCCCCC)c2cc(CCN3CCN(c4cc(F)cc5sccc45)CC3)ccc12` [Compound 51, (7-(2-(4-(6-Fluorobenzo[b]thiophen-4-yl)piperazin-1-yl)ethyl)-2-oxoquinolin-1(2H)-yl-4-d)methyl dodecanoate], the solubility at 2 h was greater than 200 mg/mL. Take `CCCCCCCC(=O)OCN1C(=O)CCc2ccc(CCN3CCN(c4cc(F)cc5sccc45)CC3)cc21` [Compound 61, (7-(2-(4-(6-Fluorobenzo[b]thiophen-4-yl)piperazin-1-yl)ethyl)-2-oxo-3,4-dihydroquinolin-1(2H)-yl) methyl octanoate]: the solubility at 2 h is greater than 200 mg/mL. With `CCCCCCCCC(=O)OCN1C(=O)CCc2ccc(CCN3CCN(c4cc(F)cc5sccc45)CC3)cc21` [Compound 62, (7-(2-(4-(6-Fluorobenzo[b]thiophen-4-yl)piperazin-1-yl)ethyl)-2-oxo-3,4-dihydroquinolin-1(2H)-yl) methyl nonanoate], the solubility at 2 h is greater than 200 mg/mL. Take `CCCCCCCCCCC(=O)OCN1C(=O)CCc2ccc(CCN3CCN(c4cc(F)cc5sccc45)CC3)cc21` [Compound 63, (7-(2-(4-(6-Fluorobenzo[b]thiophen-4-yl)piperazin-1-yl)ethyl)-2-oxo-3,4-dihydroquinolin-1(2H)-yl) methyl undecanoate]: the solubility at 2 h was greater than 200 mg/mL. The figure for `CCCCCCCCCCCCC(=O)OCN1C(=O)CCc2ccc(CCN3CCN(c4cc(F)cc5sccc45)CC3)cc21` [Compound 64, (7-(2-(4-(6-Fluorobenzo[b]thiophen-4-yl)piperazin-1-yl)ethyl)-2-oxo-3,4-dihydroquinolin-1(2H)-yl) methyl tridecanoate] is greater than 200 mg/mL; for `CCCCCCCCCCCCCC(=O)OCN1C(=O)CCc2ccc(CCN3CCN(c4cc(F)cc5sccc45)CC3)cc21` [Compound 65, (7-(2-(4-(6-Fluorobenzo[b]thiophen-4-yl)piperazin-1-yl)ethyl)-2-oxo-3,4-dihydroquinolin-1(2H)-yl) methyl tetradecanoate] it is greater than 200 mg/mL. For `CCCCCCCCCCCCCCC(=O)OCN1C(=O)CCc2ccc(CCN3CCN(c4cc(F)cc5sccc45)CC3)cc21` [Compound 66, (7-(2-(4-(6-Fluorobenzo[b]thiophen-4-yl)piperazin-1-yl)ethyl)-2-oxo-3,4-dihydroquinolin-1(2H)-yl) methyl pentadecanoate], the solubility at 2 h was greater than 200 mg/mL.
